This test concerns E3 ubiquitylation reaction (E1, E2, and E3). In words: E3 ligase assay using 5′-IAF-UBA1, inhibition assays. Type of test: biochemical, human. As to conditions: E1, E2, and E3 pre-incubated with various concentrations for 30 minutes at room temperature; detection with 5′-IAF-UBA1 and immunoblot; FIGS. 9A-D. How it is done:
E3 ligase reactions contained 10 nM GST-Praja1, 500 nM 6× His-SUMO-CARP2 or 500 nM 6× His-SUMO-MuRF1 as E3s, 50 nM E1, 150 nM UbcH5c (E2), 500 ng Ubiquitin, 2 mM ATP, 50 mM Tris-HCl pH8.0, 5 mM MgCl2, 0.1 mM DTT. For measuring SCF^Atrogin-1 E3 ligase activity, the reaction was assembled essentially as described above except that the E3 ligase contained 6× His-SUMO-Atrogin-1, Cullin-1 (“Cul1”), Roc-1 (“Rbx-1”) and 6× His-Skp1 (250 nM each). In order to obtain large amounts of the Cul1-Rbx1 complex for the SCF complex, we used a procedure to overexpress the Cul1-Rbx1 complex in E. coli. Zheng, et al., Nature, 416(6882):703-9 (2002). The Cul1 gene was split into two halves (residues 1-410 and residues 411-776) and co-expressed with GST-tagged Rbx1 as three different polypeptide chains. A PCR product encoding Skp1 was generated using the primers 5′-[…]-3′ (SEQ ID NO:28) and 5′-[…]-3′ (SEQ ID NO:29) and human Skp1 cDNA as the template. […]
For inhibition assays, reactions containing E1, E2, and E3 were pre-incubated with various concentrations of NEM and ubistatin A for 30 minutes at room temperature before initiating the reaction by adding ubiquitin and ATP. […] The wells were washed with 1× PBS and readings were taken using a fluorescence plate reader with excitation and emission wavelengths of 485 nm and 535 nm, respectively. […]
Background: In western blotting, separated proteins are transferred to a membrane and probed.

As to `O=C(Nc1ccc(/C=C/c2ccc(NC(=O)c3cc(S(=O)(=O)O)c4cccnc4c3O)cc2S(=O)(=O)O)c(S(=O)(=O)O)c1)c1cc(S(=O)(=O)O)c2cccnc2c1O` [Ubistatin A], the “inhibition of the E3 ubiquitylation assay” value is recorded as “inhibited”. For `CCN1C(=O)C=CC1=O` [NEM] the value was “inhibited”.

The values above are taken from patent US20110143958A1, “Methods of Identifying Modulators of Ubiquitin Ligases” (priority 2008, published 2011).
